Measurements published in publication PMC9743128, “Phenotype-based screening rediscovered benzopyran-embedded microtubule inhibitors as anti-neuroinflammatory agents by modulating the tubulin–p65 interaction” (Experimental & Molecular Medicine, 2022).
Read-outs that look alike come from different tables or passages of the source.

Experiments:
[1] = system: p65 nuclear translocation in J774A.1 and RAW264.7 cells; test: p65 nuclear translocation by immunofluorescence staining; type: cell-based, murine; settings: 10 μM for 1 h, then LPS; LPS alone 80%, basal 40%
Method: To monitor p65 translocation, J774A.1 cells were treated with compounds for 1 h, followed by LPS (100 ng/ml) treatment for 30 min. The cells were fixed with 4% paraformaldehyde (Sigma; #158127) in PBS (w/v) for 30 min at room temperature. After washing with 1× PBS (Welgene; ML008-02) three times, the fixed cells were permeabilized with PBS containing 0.1% Triton X-100 for 10 min. The cells were washed with 1× PBS three times and then blocked with 4% bovine serum albumin (MP Biomedicals; #0216006980) in PBS (w/v) for 1 h. The cells were incubated with mouse anti-p65 antibody (Santa Cruz; sc-8008, 1:200 diluted in 1% BSA–PBS) at 4 °C overnight and washed with PBS three times. FITC-labeled goat anti-mouse IgG antibody (Abcam; ab6785, 1:200 diluted in 1% BSA–PBS) was added to the sample and incubated for 1 h at room temperature. The remaining antibodies were finally washed three times with PBS. Nuclei were stained with Hoechst 33342 (Thermo; #62249). The cellular p65 proteins were imaged by fluorescence microscopy (GE Healthcare; Delta Vision) and quantified by the line profiling method.
During activation of the NF-κB signaling pathway, IκB is phosphorylated and degraded by proteasomes. The released p65 from IκB is translocated to the nucleus, inducing the transcription of target genes for inflammatory responses. Therefore, we monitored the translocation of p65 upon SB26019 treatment in J774A.1 and RAW264.7 murine macrophage cells stained with fluorescently labeled antibodies. […]

[2] = system: TNF-α secretion in BV-2 cells; test: TNF-α ELISA of culture medium after LPS; type: cell-based, murine; settings: 10 μM
Method: BV-2 and RAW264.7 cells were treated with compounds in the absence or presence of LPS (100 ng/ml). After 24 h, TNF-α levels in the culture medium were measured using a TNF-α ELISA kit (R&D Systems; DY410) according to the manufacturer’s protocol. Briefly, capture antibodies were coated on 96-well Maxisorp Nunc-Immuno plates (Thermo; #439454) for 1 h and washed with PBS containing 0.05% Tween-20 (PBST) three times. The plates were blocked with 1% BSA-PBS for 1 h and washed with PBST three times. Culture medium was added to the 96-well plate for 1 h and washed with PBST three times. Biotinylated detection antibody was added to the 96-well plate for 1 h and washed with PBST three times. Streptavidin–horseradish peroxidase (HRP) was added to the plate for 20 min and washed with PBST three times. After 20 min of incubation with TMB substrate (Thermo; #002023), TMB oxidation was stopped by adding 2 N H2SO4. The absorbance at 450 nm, 540 nm, and 570 nm was measured using a microplate reader (BioTek; Synergy). The following formula was used to calculate the net signal: OD450nm–(OD540nm + OD570nm)/2.
Fig. 2 SB26019 has anti-inflammatory activity via the accumulation of tubulin monomers. SB26019 (10 μM for 6 h) regulated the mRNA levels (a) and protein levels (b) of downstream genes of NF-κB in BV-2 murine microglial cells more efficiently than the other known tubulin modulators (n = 3). c Both tubulin modulators (10 μM for 6 h) and transient Flag-tagged α-tubulin overexpression increased the total amount of tubulin monomers. d Quantification of the amount of tubulin polymer vs. monomer in (c). Tubulin modulators (10 μM for 6 h) and transient Flag-tagged α-tubulin overexpression proportionally regulated the NF-κB signaling pathway at the mRNA (e) and protein levels f in RAW264.7 murine macrophage cells (n = 3). Data are presented as the mean ± SD (ns, not significant, p > 0.05; *p < 0.05; **p < 0.01; ***p < 0.001).

in vitro = settings: mouse
Method: (§1) A total of 40,000 cells were seeded on a 96-well plate and incubated for 18 h. After 6-, 12- and 24-h compound treatment, 10 μL of EZ-Cytox solution (Dogen; EZ-BULK150) was added to the 96-well plate. After 30 min, the absorbance at 455 nm was measured using a microplate reader (BioTek; Synergy).
(§2) (n=6). Data are presented as the mean ± SD.

[3] = system: LPS-mediated NO release in BV-2 microglial cells; test: Griess assay: cellular NO release after LPS treatment; type: cell-based, murine; settings: for IC50: 100 ng/mL LPS, 24 h
Method: Cellular secretion of nitric oxide (NO) was quantified with the Griess assay. BV-2 cells were seeded on a clear flat bottom TC-treated 96-well plate (Corning; #3598) and sealed with breathable sealing tape (Axygen; BF-400-S). After 18 h, BV-2 cells were treated with compounds in the absence or presence of 100 ng/mL LPS (Sigma; L4391). After 24 h, 50 μL of the cell culture media was mixed with the same volume of Griess reagent {0.1% naphthylethylenediamine dihydrochloride (Sigma; #222488) and 1% sulfanilamide (Sigma; S9251) in 4% phosphoric acid (Daejung; #6532-4405)}. Absorbance at 550 nm was measured using a microplate reader (BioTek; Synergy). Sodium nitrite (Alfa Aesar; A18668) was used for standard curve generation.
Microglia are tissue-resident macrophages involved in CNS immunosurveillance[3],[39]. Microglial activation induces proinflammatory cytokine tumor necrosis factor α (TNF-α) expression, resulting in neural toxicity[5],[6]. Therefore, the inhibition of microglial activation is critical for regulating neuroinflammation. To discover anti-neuroinflammatory NCEs, we monitored the cellular release of nitric oxide (NO) in response to lipopolysaccharide (LPS) treatment as a mimic of pathogenic activation of innate immune systems upon compound treatment in BV-2 cells using the Griess assay.

[4] = Cell viability assay (EZ-Cytox); settings: mouse, BV-2 microglial cells
Method: as §1, §2

tubulin [5] = target: T1, tubulin (Homo sapiens, UniProt P07437+P68363); test: Cellular thermal shift assay (CETSA); type: cell-based
T1 construct: endogenous in cells
T1 sequence (P07437 whole entry): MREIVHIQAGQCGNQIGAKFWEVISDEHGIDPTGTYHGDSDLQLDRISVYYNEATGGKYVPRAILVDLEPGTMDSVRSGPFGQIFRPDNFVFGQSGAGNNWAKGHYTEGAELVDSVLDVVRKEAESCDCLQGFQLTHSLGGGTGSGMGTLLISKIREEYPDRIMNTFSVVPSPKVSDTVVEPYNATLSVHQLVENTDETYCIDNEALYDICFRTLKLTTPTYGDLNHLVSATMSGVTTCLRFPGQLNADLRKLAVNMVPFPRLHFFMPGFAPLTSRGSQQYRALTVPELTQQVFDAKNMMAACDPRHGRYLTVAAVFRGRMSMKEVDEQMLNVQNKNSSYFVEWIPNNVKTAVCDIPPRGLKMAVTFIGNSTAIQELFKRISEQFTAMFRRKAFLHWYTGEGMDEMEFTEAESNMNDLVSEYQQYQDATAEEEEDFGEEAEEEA
T1 sequence (P68363 whole entry): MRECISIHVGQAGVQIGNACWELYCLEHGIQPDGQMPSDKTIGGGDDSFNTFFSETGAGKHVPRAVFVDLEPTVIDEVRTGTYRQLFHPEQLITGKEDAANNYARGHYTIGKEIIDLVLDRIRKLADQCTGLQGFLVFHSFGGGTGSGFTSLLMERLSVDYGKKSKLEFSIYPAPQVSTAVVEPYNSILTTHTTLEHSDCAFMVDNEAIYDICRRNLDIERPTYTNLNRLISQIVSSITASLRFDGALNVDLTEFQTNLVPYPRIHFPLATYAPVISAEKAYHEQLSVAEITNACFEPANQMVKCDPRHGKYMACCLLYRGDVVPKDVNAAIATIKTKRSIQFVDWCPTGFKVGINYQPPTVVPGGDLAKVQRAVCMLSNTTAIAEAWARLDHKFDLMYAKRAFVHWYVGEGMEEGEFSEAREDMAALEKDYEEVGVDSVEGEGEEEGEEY

BV-2 cells = test: Cell viability assay (EZ-Cytox); settings: 10 μM
Method: as §1, §2

tubulin [6] = target: T2, tubulin (Sus scrofa, UniProt P02550+P02554); test: Tubulin polymerization assay; type: biochemical; settings: 1 μM compound
T2 construct: purchased Cytoskeleton BK006P
T2 sequence (P02554 whole entry): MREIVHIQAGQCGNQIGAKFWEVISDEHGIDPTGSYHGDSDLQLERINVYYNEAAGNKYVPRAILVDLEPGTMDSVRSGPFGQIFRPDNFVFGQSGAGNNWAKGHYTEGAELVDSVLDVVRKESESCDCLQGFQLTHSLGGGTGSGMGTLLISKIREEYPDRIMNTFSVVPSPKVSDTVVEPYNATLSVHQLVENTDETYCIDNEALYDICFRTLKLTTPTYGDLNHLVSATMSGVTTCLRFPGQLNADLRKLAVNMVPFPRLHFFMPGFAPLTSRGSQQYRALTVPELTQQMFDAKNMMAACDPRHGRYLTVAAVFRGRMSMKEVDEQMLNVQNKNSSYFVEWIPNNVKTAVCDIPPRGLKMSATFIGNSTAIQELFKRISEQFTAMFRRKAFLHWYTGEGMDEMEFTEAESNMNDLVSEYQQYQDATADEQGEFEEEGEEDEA
T2 sequence (P02550 whole entry): as the sequence (P68363 whole entry) above, with L136S, S232G, I265A, S340T, Q358E counted along it
Method: The tubulin polymerization inhibition efficacy of the compounds was measured by a tubulin polymerization assay kit (Cytoskeleton; BK006P) according to the manufacturer’s manual. Absorbance at 340 nm was measured to observe the formation of tubulin polymers using a microplate reader (Biotek; Synergy).
Supplementary Fig. 4. Tubulin polymerization inhibition by compounds 1–13 (1 μM). In the presence or absence of compounds, tubulin was incubated to polymerize at room temperature. Absorbance at 340 nm was measured in a time-dependent manner for monitoring the rate of tubulin polymerization.
Supplementary Table 2. Tubulin polymerization inhibition of the focused library. Tubulin was incubated with each compound (1 μM) and the tubulin polymerization inhibition was monitored. Vmax was calculated from tubulin polymer generation curve data of Supplementary Fig. 3.

[7] = Mus musculus, BV-2 cells, LPS, read-out: % NO inh. at 10 μM

Row | SMILES | % Viab. at 10 μM (BV-2 cells) | % NO inh. at 10 μM ([3]; BV-2 cells, LPS) | IC50 ([3]; BV-2 cells) | other results
1 | COc1cc2c(c(OC)c1OC)-c1ccc(OC)c(=O)cc1[C@@H](NC(C)=O)CC2 [Colchicine] | – | – | – | p65 nuclear translocation in the presence of LPS [1]: < 60%; TNF-α levels compared to that of the DMSO control [2]: < 50%; viability at 10 µM (in vitro): 114%; inhibition at 10 µM [3, 7]: 51.8%
2 | COc1ccc2c(c1O)OC(C)(C)C=C2c1ccc(Cl)cc1C [Compound 1] | – | – | – | viability at 10 µM [4]: 102%; inhibition at 10 µM [3, 7]: 69.4%; inhibition at 10 µM ([3]; Mus musculus, BV-2 microglial cells, read-out: LPS-mediated NO release inhibited down to): 70%; IC50 ([3]; Mus musculus, BV-2 cells): 5.22 µM; Thermal shift of tubulin in CETSA (tubulin [5]): slight thermal sensitization
3 | COc1ccc2c(c1O)OC(C)(C)C=C2c1ccc(F)cc1C [Compound 2] | 105.3% | 65.3% | 5.94 µM | –
4 | COc1ccc2c(c1O)OC(C)(C)C=C2c1ccc(F)cc1 [Compound 3] | 88.0% | 9.9% | 22.3 µM | –
5 | COc1ccc2c(c1O)OC(C)(C)C=C2c1ccccc1C [Compound 4] | 106.1% | 73.3% | 7.19 µM | –
6 | COc1ccc2c(c1O)OC(C)(C)C=C2c1cc(C)ccc1C [Compound 5] | 99.7% | 46.9% | 9.89 µM | –
7 | COc1ccccc1C1=CC(C)(C)Oc2c1ccc(OC)c2O [Compound 6] | 113.8% | 87.1% | 5.09 µM | –
8 | COc1ccc2c(c1O)OC(C)(C)C=C2c1cccc2cccnc12 [Compound 7] | 101.5% | 98.0% | 5.01 µM | –
9 | COc1ccc2c(c1O)OC(C)(C)C=C2c1cccc2c1sc1ccccc12 [Compound 9] | 103.6% | 90.0% | 1 µM | –
10 | COc1ccc2c(c1O)OC(C)(C)C=C2c1cccc2c1Sc1ccccc1S2 [Compound 10] | 102.1% | 36.8% | 13.1 µM | –
11 | COc1ccc2c(c1O)OC(C)(C)C=C2c1cccc(-c2ccccc2)c1 [Compound 11] | 106.1% | 61.6% | 6.71 µM | –
12 | CCOC(=O)CCC1(C)C=C(c2ccc(Cl)cc2C)c2ccc(OC)c(O)c2O1 (stereo not drawn) [Compound 12] | 105.6% | 72.3% | 7.45 µM | –
13 | CCOC(=O)CCC1(C)C=C(c2cccc3c2oc2ccccc23)c2ccc(OC)c(O)c2O1 (stereo not drawn) [Compound 13] | 111.4% | 101.2% | 1.79 µM | –
14 | COC(=O)Nc1nc2ccc(C(=O)c3cccs3)cc2[nH]1 [Nocodazole, reference compound] | – | – | – | p65 nuclear translocation in the presence of LPS [1]: < 60%; viability at 10 µM [4]: 93.8%; TNF-α levels compared to that of the DMSO control [2]: < 50%; Vmax of microtubule polymerization compared to DMSO control (tubulin [6]): reduced Vmax; inhibition at 10 µM [3, 7]: 54.9%; IC50 ([3]; Mus musculus, BV-2 cells): 13.4 µM
